Measured values as given in ChEMBL document CHEMBL2069234, “Aristoxazole analogues. Conversion of 8-nitro-1-naphthoic acid to 2-methylnaphtho[1,2-d]oxazole-9-carboxylic acid: comments on the chemical mechanism of formation of DNA adducts by the aristolochic acids” (J Nat Prod, 2012).

Columns and labels:
[1] = Drug conversion assessed as formation of oxazole derivatives in presence of Zn/HOAc; type: physicochemical
Salmonella typhimurium = experiment: Mutagenicity in Salmonella typhimurium TA100; type: toxicity, organism-based; conditions: salmonella enterica subsp. enterica serovar typhimurium

Structure (SMILES): COc1cccc2c1cc([N+](=O)[O-])c1c(C(=O)O)cc3c(c12)OCO3 [ARISTOLOCHIC ACID]
- Drug metabolism [1]: Active
- Activity (Salmonella typhimurium): Toxic
